# US20070117770A1, “Human ribosomal DNA (rDNA) and ribosomal RNA (rRNA) nucleic acids and uses thereof” (Cylene Pharmaceuticals, Inc., priority 2005, published 2007)
# *1 amine or outer side, *2 acyl side, *3 side chain or, on linkers, in order; H or OH if unused. Where a SMILES comes first, the peptide text is derived from it. Bridges are numbered along the chain shown (N, C = ends). Roman numbers before positions name the chains, in order. [ ]: non-standard residue; d: D form. Actinocin(9to1) = Cc1c2oc3c(C)ccc(C(=O)[*:1])c3nc-2c(C(=O)[*:2])c(N)c1=O; NMeV = CN[C@H](C(=O)O)C(C)C; Sar = CNCC(=O)O
# Columns and labels:
# [1] = system: 28S and 18S rRNA (total RNA from HCT116 cells); assay: Competition for rRNA binding with compound A-1 (agarose gel electrophoresis); design: species or system human; conditions: 10 uM compound A-1; increasing amount of competitor (Actinomycin D 10, 100, 200 uM; pUC18 0.25-4 ug)
# Procedure: Compounds that bound to the 28S rRNA were subjected to competition for rRNA binding with Actinomycin D, Se2SAP (FIG. 3A of US20040110820 published on Jun. 10, 2004) and double-stranded DNA (dsDNA) in confirmatory studies. In such assays, 1 ug of total RNA from HCT116 cells was incubated with 10 uM compound A-1 in a volume of 10 uL in the absence/ presence of (a) increasing amount of Actinomycin D (10, 100 and 200 uM) for 15 min at room temperature, (b) increasing amount of Se2SAP (see figure) for 30 min at room temperature, or (c) increasing amount of pUC18 (0.25, 0.5, 1, 2 and 4 ug) for 30 min at room temperature, followed by agarose gel electrophoresis.
# [2] = target: T1, nucleolin/nucleic acid ligand (Homo sapiens, UniProt P19338); assay: EMSA, interference with nucleolin/nucleic acid ligand interactions (ligands derived from human ribosomal DNA); assay type: binding
# T1 construct: without the N-terminal acidic stretches domain
# Procedure: (§1) The following assays assessed effects of compounds on interactions between nucleolin and nucleic acid ligands capable of forming quadruplex (QP) and hairpin (HP) secondary structures. Nucleic acid ligands tested were a cMyc QP DNA having nucleotide sequence 5′-[…]-3′ (SEQ ID NO: 176) and a HP pre-rRNA region to which nucleolin binds, having the sequence 5′-[…]-3′ (SEQ ID NO: 177). In the assays, recombinant nucleolin (˜250 nM), which was fused to maltose binding protein and had the sequence under accession number NM_005381 without the N-terminal acidic stretches domain, was incubated with each of the two ^32P-labeled nucleic acid ligands (10 or 250 nM). Nucleolin and the nucleic acid ligand were incubated in the presence or absence of a test compound of Formula A-1, B-1, C-6 or C-7 in an incubation buffer (12.5 mM Tris, pH 7.6, 60 mM KCl, 1 mM MgCl2, 0.1 mM EDTA, 1 mM DTT, 5% glycerol, 0.1 mg/ml BSA) for 30 minutes at room temperature. Structures for A-1 and B-1 are shown above and structures for C-6 and C-7 are shown hereafter: [drawing 17] The resulting complexes were separated on a 6% DNA retardation gel using 0.5× TBE with 20 mM KCl as a running buffer (i.e., electrophoresis mobility shift assay (EMSA)).
# The assay also was conducted using nucleic acid ligands derived from human ribosomal DNA. Sequences of these nucleic acids are shown in the preceding example. […]
# [3] = system: cMYC RNA synthesis, HCT-116; assay: PCR control assay of C-myc transcription; assay type: cell-based; conditions: Homo sapiens, read-out: QPCRMYC IC50_HCT-116
# Procedure: A control assay that detected effects of the compounds on C-myc transcription also was conducted using a primer/probe set purchased from ABI (TaqMan Gene Expression Assay with assay ID: Hs99999003_m1). The following assay protocol was utilized:
# (§2) Mix • 1 ug RNA • 2.5 ul 10× Taq Man buffer • 5.5 ul 25 mM MgCl2 • 5 ul of a mix of dNTP (500 uM each) • 1.2 ul random hexamer primer (2.5 uM stock) • 0.5 ul RNase inhibitor (0.4 units/ul) • 0.6 ul Reverse Transcriptase (1.2 units/ul) • bring to 25 ul total volume with water
# (§3) Mix • 5 ul Reverse Transcriptase reaction product • 12.5 ul 2×PCR mix • 1 uM forward primer • 1 uM reverse primer • 0.5 uM Taq Man probe • 500 nM Rox • Adjust to 25 ul final volume with water
# (§4) PCR cycles • 95 degrees C. 1 minute • 40 cycles of • 95 degrees C. 15 seconds • 60 degrees C. 1 minute.
# (§5) Fluorescence of digested label was detected and quantified. […] The effect of other compounds on rRNA synthesis also were assessed in the assay, and provided in the table hereafter are IC50 values of selected compounds pertaining to rRNA synthesis and cMYC RNA synthesis.
# rRNA synthesis, HCT-116 = assay: PCR assay of rRNA synthesis from 45S rDNA (5' ETS probe); assay type: cell-based; conditions: Homo sapiens; rRNA synthesis, HCT-116; read-out: QPCRrDNA IC50_HCT-116
# Procedure: Assays were conducted to determine the effects of compounds on rRNA synthesis from 45S rDNA. In particular, compound A-1 at various concentrations was incubated with cells and tested for an effect on rRNA synthesis after a two hour or four hour incubation with the compound. Synthesized rRNA was quantified by a polymerase chain reaction (PCR) assay. A primer/probe set was designed using Primer Express software and synthesized by Applied Biosystems. The 5′ ETS Probe utilized had the following sequence (@ its 3′ end): 6FAM-TTG ATC CTG CCA GTA GC-MGBNFQ (SEQ ID NO:227). The primer sequences were as follows:
# as §2, §3, §4, §5
# [4] = system: 28S rRNA and 18S rRNA (total RNA from HCT116 cells); assay: Human rRNA interaction screening assay (agarose gel electrophoresis mobility shift); assay type: binding; conditions: 1 ug total RNA; 10 uM compound or 0.5 ug/mL PI, 15 min, room temperature
# Procedure: RNA was isolated from HCT116 cells (RNeasy kit, QIAGEN) and contacted in vitro with each compound from a library of compounds. In representative assays, 1 ug of total RNA from HCT116 cells was incubated with 0.5 ug/mL of propidium iodide (PI), 10 uM compound A-1 or another compound in the library in a volume of 10 uL for 15 min at room temperature, followed by agarose gel electrophoresis. Fluorescence of the compounds was visualized on each gel. […] Compounds C-1, C-2, C-3, C-4 and C-5 have the following general formula: [drawing 15] [drawing 16]
# [5] = target: T2, nucleolin/HP pre-rRNA region (Homo sapiens, UniProt P19338); assay: EMSA, nucleolin/HP ligand interaction; assay type: binding; conditions: nucleolin ~250 nM, 32P-labeled ligand 10 or 250 nM, 30 minutes (FIG. 1, FIG. 2)
# T2 construct: without the N-terminal acidic stretches domain
# Procedure: as §1
# nucleolin/cMyc QP DNA = target: T3, nucleolin/cMyc QP DNA (Homo sapiens, UniProt P19338); assay: EMSA, nucleolin/QP ligand interaction; assay type: binding; conditions: nucleolin ~250 nM, 32P-labeled ligand 10 or 250 nM, 30 minutes (FIG. 1, FIG. 2)
# T3 construct: without the N-terminal acidic stretches domain
# Procedure: as §1
# nucleolin [6] = target: T4, nucleolin (Homo sapiens, UniProt P19338); assay: Filter-binding assay of 32P-labeled quadruplexes and Nucleolin; conditions: for Kd: 0.2 nM 32P-labeled quadruplex, read-out: Kd, apparent dissociation constant of nucleolin protein and the nucleic acid ligand
# T4 construct: without the N-terminal acidic stretches domain
# Procedure: The assay also was conducted in a filter-binding format. […] The protein-quadruplex mixtures were incubated for 30 min at ambient temperature and filtered through mixed cellulose ester membrane filters (Millipore) with gentle suction. The filters were washed twice with […] of binding buffer, dried and OptiPhase ‘SuperMix’ scintillation cocktail (Perkin Elmer) was added to the wells. Radioactivity was assayed with MicroBeta scintillation counter (Perkin Elmer). Binding curves were constructed and apparent Kd's and Bmax's for the complexes were calculated using the GraphPad Prizm software program (GraphPad Software). In the following table, the nucleic acid ligand is designated in the first column using the nomenclature described herein; the second column provides the nucleotide sequence of the nucleic acid ligand; the third column is the conformation of the ligand as determined by circular dichroism (M is mixed, P is parallel, A is antiparallel, C is complex, SS is single-stranded and ND is not determined); the fourth column is the dissociation constant determined by the filter binding assay of nucleolin protein and the nucleic acid ligand; the fifth column is a Bmax constant determined by the filter binding assay, which is the percent of active nucleic acid ligand in each assay; and the sixth column presents the concentration of Compound A-1 required to dissociate half of the complexed nucleic acid ligand and nucleolin protein, as determined by the EMSA assay described above.
# nucleolin [7] = target: T4, nucleolin; assay: EMSA, relative affinity of nucleic acid ligands for nucleolin; assay type: binding; design: key: +: weakest nucleolin affinity; ++++: strongest nucleolin affinity
# Procedure: as §1
# The assay also was conducted using nucleic acid ligands derived from human ribosomal DNA. Sequences of these nucleic acids are shown in the preceding example. […] A “+” represents the weakest nucleolin affinity and least interference by compound A-1 and a “++++” represents the strongest nucleolin affinity and greatest interference by compound A-1.
# T4 sequence (P19338 284-710 limits assumed): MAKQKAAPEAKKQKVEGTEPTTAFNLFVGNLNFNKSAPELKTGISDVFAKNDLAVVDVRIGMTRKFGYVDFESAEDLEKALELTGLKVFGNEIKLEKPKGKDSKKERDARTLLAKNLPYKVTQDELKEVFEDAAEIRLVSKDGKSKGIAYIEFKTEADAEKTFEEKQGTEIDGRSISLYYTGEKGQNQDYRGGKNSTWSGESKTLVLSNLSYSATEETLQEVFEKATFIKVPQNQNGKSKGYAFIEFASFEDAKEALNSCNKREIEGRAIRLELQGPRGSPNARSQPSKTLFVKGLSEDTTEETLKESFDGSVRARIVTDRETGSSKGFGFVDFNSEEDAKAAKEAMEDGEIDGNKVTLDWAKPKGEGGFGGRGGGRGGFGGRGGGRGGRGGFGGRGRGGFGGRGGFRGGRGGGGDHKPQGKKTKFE
# T2 sequence (P19338 284-710 limits assumed): as above
# T3 sequence (P19338 284-710 limits assumed): as above
# T1 sequence (P19338 284-710 limits assumed): as above
compound,measurement,setting,value
"Cc1c2oc3c(C)ccc(C(=O)N[C@@H]4C(=O)N[C@H](C(C)C)C(=O)N5CCC[C@H]5C(=O)N(C)CC(=O)N(C)[C@@H](C(C)C)C(=O)O[C@@H]4C)c3nc-2c(C(=O)N[C@@H]2C(=O)N[C@H](C(C)C)C(=O)N3CCC[C@H]3C(=O)N(C)CC(=O)N(C)[C@@H](C(C)C)C(=O)O[C@@H]2C)c(N)c1=O [Actinomycin D, reference compound] (I: T[dV]P[Sar][NMeV] / II: T[dV]P[Sar][NMeV]; ester I:1-I:C, II:1-II:C; linker I:N-II:N via Actinocin(9to1))",competition with compound A-1 for rRNA binding,[1],failed to compete with compound A-1 for rRNA
same,interference with nucleolin/nucleic acid ligand interactions,[2],"but not Actinomycin D, interfered with nucleolin/nucleic acid ligand interactions"
CC(=O)N1CCN(c2c(F)cc3c(=O)c(C(=O)NCCN4CCCC4)cn4c3c2Oc2cc(Cl)ccc2-4)CC1 [Compound 4],IC50,[3],300 nM
same,IC50,"rRNA synthesis, HCT-116",50 nM
O=C(NCCN1CCCC1)c1cn2c3c(c(N4CCOCC4)c(F)cc3c1=O)Oc1cc(Cl)ccc1-2 [Compound 5],IC50,[3],300 nM
same,IC50,"rRNA synthesis, HCT-116",50 nM
CC(=O)N1CCN(c2ccc3c(=O)c(C(=O)NCCN4CCCC4)c4sc5ccccc5n4c3n2)CC1 [Compound 6],IC50,[3],300 nM
same,IC50,"rRNA synthesis, HCT-116",80 nM
O=C(NCCN1CCOCC1)c1c(=O)c2cnc(N3CCNCC3)nc2n2c1sc1ccccc12 [Compound 7],IC50,[3],300 nM
same,IC50,"rRNA synthesis, HCT-116",80 nM
CC(=O)N1CCN(c2ccc3c(=O)n(CCCN4CCCC4)c4nc5ccccc5n4c3n2)CC1 [Compound 8],IC50,[3],300 nM
same,IC50,"rRNA synthesis, HCT-116",50 nM
COc1ccc2c(=O)c(C(=O)NCCN3CCCC3)c3sc4ccccc4n3c2n1 [Compound 9],IC50,[3],300 nM
same,IC50,"rRNA synthesis, HCT-116",50 nM
CN1CCCC1CCNC(=O)c1cn2c3c(c(N4CCC(c5ccccn5)C4)c(F)cc3c1=O)Oc1cc3ccccc3cc1-2 (stereo not drawn) [Compound C-1],binding to 28S versus 18S rRNA,[4],selective binding to 28S over 18S
CN1CCCC1CCNC(=O)c1cn2c3c(c(N4CCC(c5ccccn5)C4)c(F)cc3c1=O)Oc1cc3ccccc3cc1-2 (stereo not drawn) [Compound C-2],binding to 28S versus 18S rRNA,[4],selective binding to 28S over 18S
CN1CCCC1CCNC(=O)c1cn2c3c(c(N4CCC(c5ccccn5)C4)c(F)cc3c1=O)Oc1cc3ccccc3cc1-2 (stereo not drawn) [Compound C-3],binding to 28S versus 18S rRNA,[4],less selectivity for 28S over 18S
CN1CCCC1CCNC(=O)c1cn2c3c(c(N4CCC(c5ccccn5)C4)c(F)cc3c1=O)Oc1cc3ccccc3cc1-2 (stereo not drawn) [Compound C-4],binding to 28S versus 18S rRNA,[4],less selectivity for 28S over 18S
CN1CCCC1CCNC(=O)c1cn2c3c(c(N4CCC(c5ccccn5)C4)c(F)cc3c1=O)Oc1cc3ccccc3cc1-2 (stereo not drawn) [Compound C-5],binding to 28S versus 18S rRNA,[4],specific binding to 28S over 18S
CC(=O)N1CCN(c2c(F)cc3c(=O)c(C(=O)NCCN4CCCC4)cn4c3c2Oc2cc(Cl)ccc2-4)CC1 [Compound C-6],interference with the nucleolin/HP ligand interaction,[5],did not significantly interfere with the nucleolin/HP ligand interaction
same,interference with the nucleolin/QP ligand interaction,nucleolin/cMyc QP DNA,interfered with the nucleolin/QP ligand interaction
CC(=O)N1CCN(c2c(F)cc3c(=O)c(C(=O)NCCC4CCCN4C)cn4c3c2Oc2cc3ccccc3cc2-4)CC1 (stereo not drawn) [Compound C-7],interference with the nucleolin/HP ligand interaction,[5],did not significantly interfere with the nucleolin/HP ligand interaction
same,interference with the nucleolin/QP ligand interaction,nucleolin/cMyc QP DNA,interfered with the nucleolin/QP ligand interaction
"CC[N+](C)(CC)CCC[n+]1c(-c2ccccc2)c2cc(N)ccc2c2ccc(N)cc21.[I-].[I-] [PI, propidium iodide, reference compound]",binding to 28S versus 18S rRNA,[4],did not discriminate in its binding to 18S and 28S rRNA
"GGGAGGGCGCGCGGGTCGGGG (listed as DNA, chemistry not given here; listed as Homo sapiens) [Compound 8749NT]","Bmax, percent of active nucleic acid ligand",nucleolin [6],13%
same,Kd,nucleolin [6],1.9 nM
same,Affinity for Nucleolin (relative),nucleolin [7],+
"GGGAGGGGCACGGGCCGGGGGCGGGACGGG (listed as DNA, chemistry not given here; listed as Homo sapiens) [Compound 7733T]","Bmax, percent of active nucleic acid ligand",nucleolin [6],53%
same,Kd,nucleolin [6],0.8 nM
same,Affinity for Nucleolin (relative),nucleolin [7],+
"GGGGCGCGGCGGGGGGAGAAGGGTCGGGGCGGCAGGGG (listed as DNA, chemistry not given here; listed as Homo sapiens) [Compound 11028NT]","Bmax, percent of active nucleic acid ligand",nucleolin [6],32%
same,Kd,nucleolin [6],2.7 nM
same,Affinity for Nucleolin (relative),nucleolin [7],+
GGGGGCGGGCTCCGGCGGGTGCGGGGGTGGGCGGGCGGGGCCGGGGGTGGGGTCGGCGGGGG [Compound 8511NT],"Bmax, percent of active nucleic acid ligand",nucleolin [6],100%
same,Kd,nucleolin [6],0.6 nM
same,Affinity for Nucleolin (relative),nucleolin [7],++++
"GGGTCGGGGGCGGTGGTGGGCCCGCGGGGG (listed as DNA, chemistry not given here; listed as Homo sapiens) [Compound 6183NT]","Bmax, percent of active nucleic acid ligand",nucleolin [6],26%
same,Kd,nucleolin [6],2.2 nM
same,Affinity for Nucleolin (relative),nucleolin [7],+
